Laboratory results published in patent US20090270342A1, “IMMUNOREGULATORY AGENT” (priority 2006, published 2009).

What was measured:
[1] = test system: IgA in feces; assay: Amount of IgA in feces of mice ingesting lactosucrose diet (Experiment 1); type: in vivo; conditions: Lactosucrose 5% (w/w) diet
Method: An experiment for investigating the effect of lactosucrose ingestion on the enhancement of gut immunity was carried out by measuring the amount of IgA in feces of mice. Female BALB/c mice (six weeks old) were preliminary reared for one week on “AIN-93G”, containing 40% (w/w) of corn starch, 20% (w/w) of casein, 13.2% (w/w) of α-corn starch, 10% (w/w) of sucrose, 7% (w/w) of soybean oil, 5% (w/w) of cellulose, 3.5% (w/w) of mineral mixture, 1% (w/w) of vitamin mixture, 0.3% (w/w) of L-cystine, and 0.0014% (w/w) of hydroquinone, which is a standard purified diet for researching the nutrition of mice and rats published by American National Institute of Nutrition in 1993. Successively, “LS-90P”, a saccharide composition comprising 91.8% (w/w), onadrysolid basis, of lactosucrose commercialized by ENSUIKO Sugar Refining Co., Ltd., Tokyo, Japan, was incorporated into the above purified diet, in which corn starch equal to the amount of the saccharide composition comprising lactosucrose had been removed, to give a lactosucrose content of 5% (w/w), and five mice/group were allowed to ingest the resulting test diet freely. Mice, allowed to ingest “AIN-93G”, as the standard purified diet, were used as control. Then, fresh feces were collected from the mice at one week, two weeks, three weeks, and four weeks after starting the administration of the test diet and the control diet, and the amount of IgA in the feces was measured by ELISA using anti-IgA antibody (Mouse IgA ELISA Quantitation Kit produced by Bethyl Laboratories, Inc., Texas, USA). The amount of IgA was expressed by mg/g-wet feces and the average value of those from five mice was determined. The percentages in parentheses in Table 1 mean relative values to those of the control at respective weeks.

[2] = test system: IgA and IgG in cecal content; assay: pH, weight, IgA and IgG of cecal content (Experiment 2); type: in vivo, mice; conditions: Lactosucrose 5% (w/w) diet, four weeks
Method: The effect of lactosucrose on the enhancement of gut immunity was investigated by measuring the amounts of IgA and IgG in cecal content. Mice reared for four weeks on the test diet comprising 5% (w/w) of lactosucrose or the control diet, “AIN-93G”, in Experiment 1 were sacrificed and the cecums were extirpated. Successively, the cecal content in each mouse was collected from the cecum and the pH, weight, the amounts of IgA and IgG were measured. The amounts of IgA and IgG were determined by ELISA using an anti-IgA antibody and that using an anti-IgG antibody (Mouse IgG ELISA Quantitation Kit produced by Bethyl Laboratories, Inc., Texas, USA), and expressed by mg/g-cecal content and ng/g-cecal content, respectively. The percentages in parentheses in Table 2 mean the relative values to those of the control.

[3] = test system: anti-OVA-IgE, IgG1, IgG2a in serum; assay: Anti-OVA antibody in serum of OVA/alum-sensitized mice (Experiment 4); type: in vivo; conditions: for Anti-OVA-IgG1 in serum / Anti-OVA-IgG2a in serum / Anti-OVA-IgG1 in serum, relative value to control / Anti-OVA-IgG2a in serum, relative value to control: two weeks after the second sensitization
Method: In order to investigate the effect of lactosucorse on systemic immunity, antibody level in serum was measured. Similarly as in Experiment 1, female BALB/c mice (six weeks old) were preliminary reared for one week on “AIN-93G”, the same standard purified diet as used in Experiment 1. Successively, “NYU-KA OLIGO 700”, a saccharide composition comprising 71.4% (w/w), on a dry solid basis, of lactosucrose commercialized by Hayashibara Shoji Inc., Okayama, Japan, was incorporated into the above purified diet, in which corn starch equal to the amount of the saccharide composition comprising lactosucrose had been removed, to give a lactosucrose content of 2% (w/w) or 5% (w/w), and five to seven mice/group were allowed to ingest the resulting test diet freely. Mice, allowed to ingest “AIN-93G”, as the standard purified diet, were used as control. At 10 days after from starting the administration of the test diet, mice were sensitized to antigen by administrating 20 μg of ovalbumin (OVA) (grade V, commercialized by Sigma Corporation) as antigen and 4.5 mg of “IMJECT®”, alum commercialized by Pierce ThermoScientific as adjuvant, into the peritoneal cavity. Successively, 15 days after from the first sensitization, the second sensitization was carried out by the same procedure. The blood was collected from caudal vein of mice at one, two, and three weeks after from the second sensitization, the serum was collected by centrifugation, and the amount of IgE to OVA was measured by EIA. In the cases of IgG1 and IgG2a, the amount of antibody was measured using serum collected at two weeks after from the second sensitization. The IgE and IgG2a titers were measured by capture EIA and IgG1 titer was measured by indirect EIA. Each titer was calculated by calibration curve prepared by using anti-OVA mouse serum (IgE: 1.760 U/ml, IgG1: 128,000 U/ml, IgG2a: 7,040 u/ml) as a standard serum. The amounts of IgE at one, two, or three weeks after from the second sensitization are in Table 5, and the amounts of IgG1 and IgG2a of two weeks after from the second sensitization are in Table 6. The percentages in parentheses in tables mean a relative value to the antibody concentration in serum of the control mice.

OC[C@H]1O[C@@H](O[C@H]2[C@H](O)[C@@H](O)[C@@H](O[C@]3(CO)O[C@H](CO)[C@@H](O)[C@@H]3O)O[C@@H]2CO)[C@H](O)[C@@H](O)[C@H]1O [Lactosucrose, β-D-galactosyl-(1,4)-α-D-glucosyl-(1,2)-β-D-fructoside]
Amount of IgA in feces, relative value to control ([1]; 1 week after): (232%) | Amount of IgA in feces ([1]; 1 week after (8 weeks old)): 13 ± 2.6 mg/g | Amount of IgA in feces, relative value to control ([1]; 2 weeks after): (285%) | Amount of IgA in feces ([1]; 2 weeks after (9 weeks old)): 5.7 ± 2.3 mg/g | Amount of IgA in feces, relative value to control ([1]; 3 weeks after): (543%) | Amount of IgA in feces ([1]; 3 weeks after (10 weeks old)): 7.6 ± 1.4 mg/g | Amount of IgA in feces, relative value to control ([1]; 4 weeks after): (755%) | Amount of IgA in feces ([1]; 4 weeks after (11 weeks old)): 8.3 ± 1.9 mg/g | IgA in cecal content [2]: 5.6 ± 1.6 mg/g | IgA in cecal content, relative value to control [2]: (982%) | IgG in cecal content [2]: 140 ± 54 ng/g | IgG in cecal content, relative value to control [2]: (117%) | Weight of cecal content [2]: 0.22 ± 0.051 g | Weight of cecal content, relative value to control [2]: (169%) | pH of cecal content [2]: 6.63 ± 0.27 | Increase of the amount of secreted IgA in cecal content ([2]; versus control): about 10 folds | Anti-OVA-IgE in serum ([3]; Lactosucrose 2% (w/w) diet, one week after the 2nd sensitization): 270 ± 160 U/ml | Anti-OVA-IgE in serum ([3]; Lactosucrose 2% (w/w) diet, three weeks after the 2nd sensitization): 110 ± 62 U/ml | Anti-OVA-IgE in serum ([3]; Lactosucrose 2% (w/w) diet, two weeks after the 2nd sensitization): 150 ± 35 U/ml | Anti-OVA-IgG1 in serum ([3]; Lactosucrose 2% (w/w) diet): 27 ± 10 ×10^4 U/ml | Anti-OVA-IgG2a in serum ([3]; Lactosucrose 2% (w/w) diet): 4.0 ± 3.4 ×10^4 U/ml | Anti-OVA-IgE in serum, relative value to control ([3]; Lactosucrose 2% (w/w), one week after the 2nd sensitization): (87%) | Anti-OVA-IgE in serum, relative value to control ([3]; Lactosucrose 2% (w/w), three weeks after the 2nd sensitization): (52%) | Anti-OVA-IgE in serum, relative value to control ([3]; Lactosucrose 2% (w/w), two weeks after the 2nd sensitization): (58%) | Anti-OVA-IgG1 in serum, relative value to control ([3]; Lactosucrose 2% (w/w)): (68%) | Anti-OVA-IgG2a in serum, relative value to control ([3]; Lactosucrose 2% (w/w)): (41%) | Anti-OVA-IgE in serum ([3]; Lactosucrose 5% (w/w) diet, one week after the 2nd sensitization): 290 ± 77 U/ml | Anti-OVA-IgE in serum ([3]; Lactosucrose 5% (w/w) diet, three weeks after the 2nd sensitization): 160 ± 57 U/ml | Anti-OVA-IgE in serum ([3]; Lactosucrose 5% (w/w) diet, two weeks after the 2nd sensitization): 120 ± 32 U/ml | Anti-OVA-IgG1 in serum ([3]; Lactosucrose 5% (w/w) diet): 28 ± 7.5 ×10^4 U/ml | Anti-OVA-IgG2a in serum ([3]; Lactosucrose 5% (w/w) diet): 4.8 ± 3.8 ×10^4 U/ml | Anti-OVA-IgE in serum, relative value to control ([3]; Lactosucrose 5% (w/w), one week after the 2nd sensitization): (94%) | Anti-OVA-IgE in serum, relative value to control ([3]; Lactosucrose 5% (w/w), three weeks after the 2nd sensitization): (48%) | Anti-OVA-IgE in serum, relative value to control ([3]; Lactosucrose 5% (w/w), two weeks after the 2nd sensitization): (46%) | Anti-OVA-IgG1 in serum, relative value to control ([3]; Lactosucrose 5% (w/w)): (70%) | Anti-OVA-IgG2a in serum, relative value to control ([3]; Lactosucrose 5% (w/w)): (49%)
